Data on two compounds can be found in paper PMC4204849, “Lifespan Based Pharmacokinetic-Pharmacodynamic Model of Tumor Growth Inhibition by Anticancer Therapeutics” (PLoS ONE, 2014).

Values after ≈ are worked out from the molar mass of the structure shown. Marks after values point to notes of the source that are not given here.

The conditions of data set [1]: mouse, in vivo, iv, 30 mg/kg. An excerpt:
(§1) Data used in Case Study 1 was obtained from mouse xenograft study reported by Simeoni and colleague. […] Data from the study was digitized using Graph Digitizer 2.0 (Nick's Production).

Data set [2] has as its system tumors derived from the HCT116 human colon carcinoma cell line. The data set can be described thus: Tumor growth inhibition by paclitaxel in xenograft mice, lifespan TGI model with cycle-specific drug effect. The data set is classed as in vivo. The following applies: for TA (duration of apoptosis): 30 mg/kg i.v. every 4 days from day 8, grid search, then fixed, data digitized from ref 11; for Emax (maximum effect): fixed to 1 due to lack of escalating doses.
Excerpt: as §1

Details of data set [3]: method as in PMID 14871843. The following applies: two-compartment model, parameter fixed, cited from earlier work.
Data set [4] in a line: Pharmacokinetic study of AZD1208, single oral administration, one-compartment model. The data set is classed as in vivo, mice. The following applies: single oral 3, 10, 30 mg/kg. On the procedure:
For pharmacokinetic study of AZ968, CD1 mice were given single i.p. injection of AZ968 at 10, 20 or 30 mg/kg with 3 mice per dose group. Blood samples were collected via cardiac puncture. Total plasma concentrations of AZ968 were determined by LC/MS/MS method. Same procedure was used for the pharmacokinetic study of AZD1208, except AZD1208 was administered orally (p.o.) at 3, 10 or 30 mg/kg doses as outlined in the original study.
(§2) Data for this case study was provided by AstraZeneca. For the purpose of this case study we will set time according to when the first dose of AZD1208 was administered, which we count as day 1. We began with a compartmental PK analysis after a single oral administration of AZD1208 at 3, 10 and 30 mg/kg and found it well described using a one-compartment PK model with first order absorption as shown in Figure 9A.

Another data set has as its system MOLM-16 tumor cell. In words: Tumor growth inhibition by AZD1208 in xenograft, lifespan TGI model (non-cycle-specific, Emax). The data set is classed as in vivo, mice. On the procedure: as §2
After establishing the PK model, we fit the TGI data using the lifespan TGI model. Since AZD1208 is a pan-Pim kinase inhibitor that promotes apoptosis at any stages of cell cycle, the data were analyzed using the non-cycle-specific model. […] In order to adapt the lifespan TGI model to account for only exponential growth we simply set the tumor threshold, wth, to a very large value well beyond the observed values of tumor size. Another unique feature of this dataset is the inclusion of saturating doses. To accommodate the dose ranges we replaced the drug potency constant, k2, in eq. 18 with the Emax model. The process of fitting was the same as for the previous studies, however, in this study the control data were very sparse and the doubling time, T, could not be estimated. In order to proceed with the analysis we set T = 3 days based on the doubling time reported by the commercial vendor of the MOLM-16 tumor cell used in the study, which was similar to the doubling reported the original study when the cells were initially collected. […] The remaining parameters were estimated with high precision and are well within biologically feasible ranges (see Table 6).

With `CC(=O)O[C@H]1C(=O)[C@@]2(C)[C@H]([C@H](OC(=O)c3ccccc3)[C@]3(O)C[C@H](OC(=O)[C@H](O)[C@@H](NC(=O)c4ccccc4)c4ccccc4)C(C)=C1C3(C)C)[C@]1(OC(C)=O)CO[C@@H]1C[C@@H]2O` [paclitaxel], the peak plasma concentration in data set [1] was found to be 37040 ng/mL. In data set [2], the “TA (duration of apoptosis)” value was 0.536 days and the “Emax (maximum effect)” value was found to be 1. In data set [2] (listed as Paclitaxel), the “TA (duration of apoptosis)” value is on record as 0.536 ^a days and the “Emax (maximum effect)” value is 1 ^a. The V in data set [3] (i.v. paclitaxel) is given as 0.81 L/kg. In addition, in data set [3], the k12 was 0.006 h⁻¹, the k21 was 0.0838 h⁻¹ and the kel is 0.868 h⁻¹.
In general, EC50 refers to the concentration needed to bring the measured effect to its halfway point. Low readings indicate an effect from little substance, high ones a need for much substance. As for `N[C@@H]1CCCN(c2c(/C=C3\SC(=O)NC3=O)cccc2-c2ccccc2)C1` [AZD1208], in data set [4], the V/F turned out to be 4.86 L/kg; the “elimination rate constant, kel” value is reported as “same value as ka”; the ka came to 5.52 day⁻¹. Moreover, the “TA (duration of apoptosis)” value with MOLM-16 tumor cell (0.3, 1, 3, 10, 30 mg/kg orally, parameter was fixed) was 1.92 ^a days. For the same compound, in the data set on MOLM-16 tumor cell (Emax model replacing k2 in non-cycle-specific model), the Emax was determined as 0.159. Besides, the EC50 in the data set with MOLM-16 tumor cell (plasma concentration, Emax model, non-cycle-specific model) was found to be 0.182 µg/mL (≈ 0.48 µM).
